Laboratory results: patent US20120219568A1, “EPIDITHIODIOXO[…] USES THEREOF IN TREATING CANCER” (priority 2011, published 2012)

Assays:
[1] = system: BNIP3, IRF8, Neurog1, p15ink4b, RUNX3; experiment: Expression of genes with methylated promoters; format: cell-based, human; conditions: SW620, AzadC 0-1.0 μM
Procedure: To determine whether verticillin A inhibits DNA methylation in other gene promoters, 4 other genes (IRF8, Neurog1, p15ink4b, RUNX3) with known promoter DNA methylation in human colon carcinoma cells were selected. SW620 cells were treated with AzadC (0-1.0 μM) and verticillin A (0-50 nM), respectively, and analyzed for the expression of BNIP3 and these 4 genes.

SW620 cells [2] = experiment: SW620 growth with anticancer drugs, MTT assay; format: cell-based, human; conditions: for growth inhibitory effect of the drug alone at lower dose: Etoposide 1 μg/ml, Cisplatin 1 μg/ml, 5-FU 0.1 μg/ml, Doxorubicin 0.01 μg/ml; for SW620 cell sensitivity to the drug: drug alone
Procedure: For cell viability assay, cells were seeded in wells of 96-well plates for 2 days and then treated with different concentrations of mushroom extract fractions or purified verticillin A for 2 days. The cells were then incubated with MTT (3-(4,5-dimethylthiazol-2-yl)-2,5-diphenyltetrazolium bromide) using the MTT assay kit (ATCC, Manassas, Va.) according to the manufacturer's instructions.
Etoposie, Cisplatin, 5-FU and Doxorubicin are commonly used cancer drugs that suppress tumor cell growth through their cytotoxicity. High cytotoxicity is often associated with high dose of their drugs. Furthermore, tumor cells often develop resistance to these cytotoxic drugs. To determine whether Verticillin A can increase the efficacy of these drugs and overcome drug resistance, the effectiveness of Verticillin A combined with these 4 drugs in suppression of tumor cell growth was tested in vitro. SW620 cell sensitivity to these drugs was first measured. SW620 cells are resistant to Etoposide but sensitive to 5-FU. […] SW620 cells were next pretreated with Verticillin A, followed by treatment with Etoposide (1 μg/ml), Cisplatin (1 μg/ml), 5-FU ([…]) and Doxorubicin (0.01 μg/ml), respectively.

[3] = system: Colon carcinoma (LS114N, T84, LS174T and SW620); experiment: A-CDase inhibitor pre-treatment and TRAIL-induced apoptosis; format: cell-based; conditions: LCL85 pre-treatment prior to TRAIL
Procedure: A complementary approach was examined to determine the role of A-CDase in TRAIL resistance. Colon carcinoma (LS114N, T84, LS174T and SW620) were treated with A-CDase inhibitor LCL85 prior to TRAIL treatment and analyzed for apoptosis.

SW620 cells [4] = experiment: Exogenous ceramide and TRAIL-mediated apoptosis; format: cell-based, human
Procedure: FIG. 8 is a bar graph showing cell death (%) of SW620 cells incubated with C16 ceramide for 2 h followed by treatment with TRAIL overnight. The tumor cells were then stained with PI and annex V and analyzed by flow cytometry. % apoptotic cells were calculated by the formula [% annexin V^+ cells of the TRAIL-treated cells-% annexin V^+ cells of untreated cells].
A-CDase catalyzes ceramide degradation to decrease ceramide level in the cells and overexpression of A-Cdase is often associated with apoptosis resistance in tumor cells (Elojeimy S, et al. Mol Ther 2007 15(7):1259-63; Liu X, et al. Front Biosci 2008 13:2293-8; Mao C, et al. Biochim Biophys Acta 2008 1781(9):424-34; Ogretmen B. FEBS Lett 2006 580(23):5467-76; Baran Y, et al. J Biol Chem 2007 282(15):10922-34). Inhibition of A-CDase activity is often associated with increased ceramide level and enhanced apoptosis sensitivity (Liu X, et al. Front Biosci 2008 13:2293-8; Ogretmen B. FEBS Lett 2006 580(23):5467-76; White-Gilbertson S, et al. Oncogene 2009 28(8):1132-41). Next, we examined the effect of exogenous ceramide on tumor cell sensitivity to TRAIL-mediated apoptosis. SW620 cells were incubated with different concentrations of C16 ceramide for 2 h and then treated with TRAIL.

SW620 cells [5] = experiment: Apoptosis and TRAIL sensitization of SW620 cells (PI/annexin V flow cytometry); format: cell-based, human; conditions: SW620, agent alone
Procedure: Cells were seeded in wells of 96-well plates for 2 days and then treated with different concentrations of mushroom extract fractions or purified verticillin A for 2 days. The cells were stained with propidium iodide (PI) (Trevigen, Gaithersburg, Md.) or PI plus annexin V-Alex Fluor 647 (Biolegend, San Diego, Calif.) and analyzed by flow cytometry.
SW620 is a metastatic human colon carcinoma cell line that is resistant to TRAIL-induced apoptosis (Voelkel-Johnson C, et al. Mol Cancer Ther 2005 4(9):1320-7).

SW620 tumor xenograft = SW620 tumor xenograft growth in athymic mice; format: in vivo; conditions: TRAIL single agent
Procedure: Athymic mice were subcutaneously inoculated with human hepatoma HepG2 and colon carcinoma SW620 cells, respectively. The tumor-bearing mice were randomized into experimental groups. The control mice were given saline. The treatment group was intravenously injected with verticillin A at the doses of 1 and 2 mg/kg body weight. Tumor size was measured in 2 diameter with micrometer caliper at the indicate times to permit calculation of tumor volume, V=(a×b^2)/2, where “a” is the length and “b” is the width in millimeters. At the end of the experiment, all the animals were sacrificed, The tumor inhibitory rates were calculated using the following formula: [(mean tumor volume of control nude mice−mean tumor volume of treated nude mice)/mean tumor volume of control nude mice]×100%.
The disclosed observations indicate that verticillin A can dramatically increase TRAIL-induced tumor cell apoptosis. To determine whether these in vitro observations can be extended to enhance TRAIL-mediated tumor suppression in vivo, SW620 cells were injected subcutaneously to athymic mice, verticillin A and TRAIL, either used as single agent or in combination, were then injected to the tumor-bearing mice. Tumor growth rate were measured in different time points. Verticillin A can inhibit tumor cell growth in vitro at high dose and sensitize tumor cells to TRAIL-induced apoptosis at a low dose. […] As expected, SW620 tumors are resistant to TRAIL (Voelkel-Johnson C, et al. Mol Cancer Ther 2005 4(9):1320-7).

`Nc1ncn([C@H]2C[C@H](O)[C@@H](CO)O2)c(=O)n1` [AzadC, reference compound] was tested. Which “expression levels of BNIP3, IRF8, Neurog1, p15ink4b, RUNX3” value [1] did it give?
The value was “dramatically increased”.

`O=c1[nH]cc(F)c(=O)[nH]1` [5-FU] was tested. Which “growth inhibitory effect of the drug alone at lower dose” value (SW620 cells [2]) did it give?
Its value is “minimal inhibitory effects”.

What about the “SW620 cell sensitivity to the drug” value (SW620 cells [2]) of the same molecule?
The value was “sensitive”.

Which “growth inhibitory effect of the drug alone at lower dose” value (SW620 cells [2]) does the source give for `COc1cc([C@@H]2c3cc4c(cc3[C@@H](O[C@@H]3O[C@@H]5CO[C@@H](C)O[C@H]5[C@H](O)[C@H]3O)[C@H]3COC(=O)[C@H]23)OCO4)cc(OC)c1O` [Etoposide] here?
The value was “minimal inhibitory effects”.

And the “SW620 cell sensitivity to the drug” value (SW620 cells [2])?
The value was “resistant”.

For `COc1cccc2c1C(=O)c1c(O)c3c(c(O)c1C2=O)C[C@@](O)(C(=O)CO)C[C@@H]3O[C@H]1C[C@H](N)[C@H](O)[C@H](C)O1` [Doxorubicin], which “growth inhibitory effect of the drug alone at lower dose” value (SW620 cells [2]) is on record?
The value was “minimal inhibitory effects”.

What about the “SW620 cell sensitivity to the drug” value (SW620 cells [2]) of the same molecule?
Its value is “only sensitive to high doses”.

What does the source list for `N.N.[Cl][Pt][Cl]` [Cisplatin]?
growth inhibitory effect of the drug alone at lower dose (SW620 cells [2]): minimal inhibitory effects; SW620 cell sensitivity to the drug (SW620 cells [2]): only sensitive to high doses

With `O=C(CCCCCCCCCCCCCCC[n+]1ccccc1)N[C@H](CO)[C@H](O)c1ccc([N+](=O)[O-])cc1.[Br-]` [LCL85, (1R,2R)-2_N-[16-(1′-pyridinium)-hexadecanoylamino)-1-(4′-nitrophenyl)-1,3-propandiol bromide] as the molecule, how does the “sensitivity of tumor cells to TRAIL-induced apoptosis” value [3] read?
Its value is “significantly increased the sensitivity of tumor cells to TRAIL-induced apoptosis”.

Which results are given for `CCCCCCCCCCCCC/C=C/[C@@H](O)[C@H](CO)NC(=O)CCCCCCCCCCCCCCC` [C16 ceramide]?
tumor cell sensitivity to TRAIL-mediated apoptosis (SW620 cells [4]; SW620, C16 ceramide 2 h then TRAIL): dramatically increased the tumor cell sensitivity to TRAIL-mediated apoptosis; apoptosis-inducing activity (SW620 cells [4]; SW620, C16 ceramide alone): exhibited apoptosis-inducing activity at a dose-dependent manner

B1: TRAIL: TNF-related apoptosis-inducing ligand; recombinant TRAIL protein expressed and purified from E. coli (protein, UniProt P50591 1-281, looked up)
Tumor necrosis factor ligand …: MAMMEVQGGPSLGQTCVLIVIFTVLLQSLCVAVTYVYFTNELKQMQDKYSKSGIACFLKEDDSYWDPNDEESMNSPCWQVKWQLRQLVRKMILRTSEETISTVQEKQQNISPLVRERGPQRVAAHITGTRGRSNTLSSPNSKNEKALGRKINSWESSRSGHSFLSNLHLRNGELVIHEKGFYYIYSQTYFRFQEEIKENTKNDKQMVQYIYKYTSYPDPILLMKSARNSCWSKDAEYGLYSIYQGGIFELKENDRIFVSVTNEHLIDMDHEASFFGAFLVG
How did the “apoptosis induction, single agent” value (SW620 cells [5]) turn out when B1 was run?
Its value is “no apoptosis induction activity”.

What about the “SW620 tumor response to TRAIL alone” value (SW620 tumor xenograft) of the same molecule?
Its value is “resistant”.
